pKi: −log10 of the molar value.
These compounds were tested against T1, human ALK5 (Homo sapiens, UniProt P36897) (assay: ADP-GLO Kinases assay of ALK5 enzymatic activity). Settings: purified recombinant human ALK5, TGFβ1 peptide substrate, pIC50 converted to pKi by Cheng-Prusoff, high ATP protocol (15 μM) for very potent compounds, 25° C.
T1 construct: human ALK5 (recombinant TGF β1 N-term GST-tagged, 80-end); GST (N); purchased
T1 sequence (P36897 80-503 limits assumed): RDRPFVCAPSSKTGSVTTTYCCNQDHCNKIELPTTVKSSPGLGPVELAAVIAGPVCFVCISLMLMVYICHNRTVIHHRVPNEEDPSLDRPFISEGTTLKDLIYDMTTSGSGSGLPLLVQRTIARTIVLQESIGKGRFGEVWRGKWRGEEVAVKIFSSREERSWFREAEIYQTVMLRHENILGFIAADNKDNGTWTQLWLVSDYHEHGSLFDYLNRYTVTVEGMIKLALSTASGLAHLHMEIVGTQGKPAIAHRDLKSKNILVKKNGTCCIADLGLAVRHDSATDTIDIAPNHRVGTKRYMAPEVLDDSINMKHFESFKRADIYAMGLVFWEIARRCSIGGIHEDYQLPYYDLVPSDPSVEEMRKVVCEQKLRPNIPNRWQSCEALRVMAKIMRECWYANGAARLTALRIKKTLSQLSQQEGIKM
Assay type: biochemical
In short: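 Purified ALK5 preincubated 15 min with compound, then reacted with substrate and ATP; ADP formed read by ADP-Glo luminescence after 120 min or 60 min reaction, all steps at 25° C. 11-point concentration-response; pIC50 converted to pKi via Cheng-Prusoff.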

Compound | pKi
CN1CCN([C@H]2C[C@@H](C(=O)Nc3cc(Nc4cc(-c5cc(Cl)ccc5F)nnc4N(C)CC4(C)CCOC4=O)ccn3)C2)CC1 (single isomer, unassigned) [Example 136, Cis N-(4-{[6-(5-chloro-2-fluorophenyl)-3-{methyl[(3-methyl-2-oxooxolan-3-yl)methyl]amino}pyridazin-4-yl]amino}pyridin-2-yl)-3-(4-methylpiperazin-1-yl)cyclobutane-1-carboxamide] | 9.50 to 9.90
CCOC(=O)C(C)(C)CN(C)c1nnc(-c2cc(Cl)ccc2F)cc1Nc1ccnc(NC(=O)CCN2CCN(C)CC2)c1 [Example 145, ethyl 3-{[6-(5-chloro-2-fluorophenyl)-4-({2-[3-(4-methylpiperazin-1-yl)propanamido]pyridin-4-yl}amino)pyridazin-3-yl](methyl)amino}-2,2-dimethylpropanoate] | 9.50 to 9.90
Nc1cc(Nc2cc(-c3cc(Cl)ccc3F)nnc2OCCO)ccn1 [Example 43, 2-({4-[(2-aminopyridin-4-yl)amino]-6-(5-chloro-2-fluorophenyl)pyridazin-3-yl}oxy)ethan-1-ol] | 8.50 to 9.40
CSCCCOc1nnc(-c2cc(Cl)ccc2F)cc1Nc1ccnc(N)c1 [Example 55, N4-[6-(5-chloro-2-fluorophenyl)-3-[3-(methylsulfanyl)propoxy]pyridazin-4-yl]pyridine-2,4-diamine] | 9.50 to 9.90
CN1CCN(CCC(=O)Nc2cc(Nc3cc(-c4cc(Cl)ccc4F)nnc3OCCO)ccn2)CC1 [Example 1, N-(4-{[6-(5-chloro-2-fluorophenyl)-3-(2-hydroxyethoxy)pyridazin-4-yl]amino}pyridin-2-yl)-3-(4-methylpiperazin-1-yl)propanamide] | ≥ 10.00
CN1CC2(C1)CN(CC(=O)Nc1cc(Nc3cc(-c4cc(Cl)ccc4F)nnc3SCCO)ccn1)C2 [Example 24, N-(4-{[6-(5-chloro-2-fluorophenyl)-3-[(2-hydroxyethyl)sulfanyl]pyridazin-4-yl]amino}pyridin-2-yl)-2-{6-methyl-2,6-diazaspiro[3.3]heptan-2-yl}acetamide] | ≥ 10.00
COc1nnc(-c2cc(Cl)ccc2F)cc1Nc1ccnc(N)c1 [Example 48, N4-[6-(5-chloro-2-fluorophenyl)-3-methoxypyridazin-4-yl]pyridine-2,4-diamine] | 9.50 to 9.90
CN1CCN(CCC(=O)Nc2cc(Nc3cc(-c4cc(Cl)ccc4F)nnc3SC3(C)CCOC3=O)ccn2)CC1 (racemic) [Example 192, N-(4-{[6-(5-chloro-2-fluorophenyl)-3-[(3-methyl-2-oxooxolan-3-yl)sulfanyl]pyridazin-4-yl]amino}pyridin-2-yl)-3-(4-methylpiperazin-1-yl)propanamide] | 9.50 to 9.90
CN1CCN(CCOc2nnc(-c3cc(Cl)ccc3F)cc2Nc2ccnc3[nH]ccc23)CC1 [Example 37, 6-(5-chloro-2-fluorophenyl)-3-[2-(4-methylpiperazin-1-yl)ethoxy]-N-{1H-pyrrolo[2,3-b]pyridin-4-yl}pyridazin-4-amine] | 8.50 to 9.40
CN1CCN([C@H]2C[C@@H](C(=O)Nc3cc(Nc4cc(-c5cc(Cl)ccc5F)nnc4N(C)CC4(C)CCOC4=O)ncn3)C2)CC1 (single isomer, unassigned; enantiomer 1) [Example 143, Cis Enantiomer 1 N-(6-{[6-(5-chloro-2-fluorophenyl)-3-{methyl[(3-methyl-2-oxooxolan-3-yl)methyl]amino}pyridazin-4-yl]amino}pyrimidin-4-yl)-3-(4-methylpiperazin-1-yl)cyclobutane-1-carboxamide] | 9.50 to 9.90
CN1CCN([C@H]2C[C@@H](C(=O)Nc3cc(Nc4cc(-c5cc(Cl)ccc5F)nnc4SCC4COC(C)(C)O4)ccn3)C2)CC1 (stereo partly drawn) [Example 115, Cis N-(4-{[6-(5-chloro-2-fluorophenyl)-3-{[(2,2-dimethyl-1,3-dioxolan-4-yl)methyl]sulfanyl}pyridazin-4-yl]amino}pyridin-2-yl)-3-(4-methylpiperazin-1-yl)cyclobutane-1-carboxamide] | ≥ 10.00
CN1CCN(CCC(=O)Nc2cc(Nc3cc(-c4cc(Cl)ccc4F)nnc3N(C)CC3(CO)CCOC3=O)ccn2)CC1 (stereo not shown) [Example 152, N-(4-{[6-(5-chloro-2-fluorophenyl)-3-({[3-(hydroxymethyl)-2-oxooxolan-3-yl]methyl}(methyl)amino)pyridazin-4-yl]amino}pyridin-2-yl)-3-(4-methylpiperazin-1-yl)propanamide] | ≥ 10.00
O=C(Nc1cc(Nc2cc(-c3cc(Cl)ccc3F)nnc2SCCO)ncn1)[C@H]1C[C@@H](N2CCN(C3CC3)CC2)C1 [Example 181, Cis N-(6-{[6-(5-chloro-2-fluorophenyl)-3-[(2-hydroxyethyl)sulfanyl]pyridazin-4-yl]amino}pyrimidin-4-yl)-3-(4-cyclopropylpiperazin-1-yl)cyclobutane-1-carboxamide] | ≥ 10.00
CN1CCCN(CC(=O)Nc2cc(Nc3cc(-c4cc(Cl)ccc4F)nnc3OC3CCOC3)ccn2)CC1 (single isomer, unassigned) [Example 73, N-(4-{[6-(5-chloro-2-fluorophenyl)-3-(oxolan-3-yloxy)pyridazin-4-yl]amino}pyridin-2-yl)-2-(4-methyl-1,4-diazepan-1-yl)acetamide] | ≥ 10.00
COCCOc1nnc(-c2cc(Cl)ccc2F)cc1Nc1ccnc(NC(=O)CCN2CCN(CC(F)(F)F)CC2)c1 [Example 33, N-(4-{[6-(5-chloro-2-fluorophenyl)-3-(2-methoxyethoxy)pyridazin-4-yl]amino}pyridin-2-yl)-3-[4-(2,2,2-trifluoroethyl)piperazin-1-yl]propanamide] | ≥ 10.00

Results, then the compound that gave them:

pKi | Compound
≥ 10.00 | CN1CCN([C@H]2C[C@@H](C(=O)Nc3cc(Nc4cc(-c5cc(Cl)ccc5F)nnc4N(C)CC4(C)CCOC4=O)ccn3)C2)CC1 (single isomer, unassigned) [Example 135, Cis N-(4-{[6-(5-chloro-2-fluorophenyl)-3-{methyl[(3-methyl-2-oxooxolan-3-yl)methyl]amino}pyridazin-4-yl]amino}pyridin-2-yl)-3-(4-methylpiperazin-1-yl)cyclobutane-1-carboxamide]
≥ 10.00 | CN1C[C@@H]2C[C@H]1CN2CC(=O)Nc1cc(Nc2cc(-c3cc(Cl)ccc3F)nnc2OC[C@H]2C[C@@H](O)C2)ccn1 [Example 122, N-(4-{[6-(5-chloro-2-fluorophenyl)-3-[(3-hydroxycyclobutyl)methoxy]pyridazin-4-yl]amino}pyridin-2-yl)-2-[(1S,4S)-5-methyl-2,5-diazabicyclo[2.2.1]heptan-2-yl]acetamide]
≥ 10.00 | O=C(CN1CCNCC1)Nc1cc(Nc2cc(-c3cc(Cl)ccc3F)nnc2SCCO)ccn1 [Example 60, N-(4-{[6-(5-chloro-2-fluorophenyl)-3-[(2-hydroxyethyl)sulfanyl]pyridazin-4-yl]amino}pyridin-2-yl)-2-(piperazin-1-yl)acetamide]
≥ 10.00 | O=C(Nc1cc(Nc2cc(-c3cc(Cl)ccc3F)nnc2SCCO)ccn1)[C@H]1C[C@@H](N2CCSCC2)C1 [Example 89, Cis N-(4-{[6-(5-chloro-2-fluorophenyl)-3-[(2-hydroxyethyl)sulfanyl]pyridazin-4-yl]amino}pyridin-2-yl)-3-(thiomorpholin-4-yl)cyclobutane-1-carboxamide]
≥ 10.00 | CN(CCC(O)C(F)(F)F)c1nnc(-c2cc(Cl)ccc2F)cc1Nc1ccnc(NC(=O)CN2C[C@@H]3C[C@H]2CN3C)c1 (single isomer, unassigned) [Example 131]
≥ 10.00 | COc1nnc(-c2cc(Cl)ccc2F)cc1Nc1ccnc(NC(=O)CN2CCN(CC(F)(F)F)CC2)c1 [Example 14, N-(4-{[6-(5-chloro-2-fluorophenyl)-3-methoxypyridazin-4-yl]amino}pyridin-2-yl)-2-[4-(2,2,2-trifluoroethyl)piperazin-1-yl]acetamide]
≥ 10.00 | CN1CCN(CC23CC(C(=O)Nc4cc(Nc5cc(-c6cc(Cl)ccc6F)nnc5SCCO)ccn4)(C2)C3)CC1 [Example 180, N-(4-{[6-(5-chloro-2-fluorophenyl)-3-[(2-hydroxyethyl)sulfanyl]pyridazin-4-yl]amino}pyridin-2-yl)-3-[(4-methylpiperazin-1-yl)methyl]bicyclo[11.1.1]pentane-1-carboxamide]
≥ 10.00 | O=C(Nc1cc(Nc2cc(-c3cc(Cl)ccc3F)nnc2SCCO)ccn1)C1CC(N2CCC(F)(F)C(CO)C2)C1 (racemic) [Example 170, N-(4-{[6-(5-chloro-2-fluorophenyl)-3-[(2-hydroxyethyl)sulfanyl]pyridazin-4-yl]amino}pyridin-2-yl)-3-[4,4-difluoro-3-(hydroxymethyl)piperidin-1-yl]cyclobutane-1-carboxamide]
≥ 10.00 | CN1CCN(CCC(=O)Nc2cc(Nc3cc(-c4cc(Cl)ccc4F)nnc3N(C)CC3(C)CCOC3=O)ncn2)CC1 (racemic) [Example 137, N-(6-{[6-(5-chloro-2-fluorophenyl)-3-{methyl[(3-methyl-2-oxooxolan-3-yl)methyl]amino}pyridazin-4-yl]amino}pyrimidin-4-yl)-3-(4-methylpiperazin-1-yl)propanamide]
≥ 10.00 | COCCOc1nnc(-c2cc(Cl)ccc2F)cc1Nc1ccnc(NC(=O)CCN2CCN(C)CC2)c1 [Example 31, N-(4-{[6-(5-chloro-2-fluorophenyl)-3-(2-methoxyethoxy)pyridazin-4-yl]amino}pyridin-2-yl)-3-(4-methylpiperazin-1-yl)propanamide]

Source: patent publication US20250011299A1, “PYRIDAZINYL AMINO DERIVATIVES AS ALK5 INHIBITORS” (CHIESI FARMACEUTICI S.P.A., priority 2021, published 2025)
